Tests used:
Test in all cases: cells
TGW = assay type: functional, cell-based, Homo sapiens; settings: Homo sapiens, TGW;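 further: growth inhibition of human TGW cells, read out with a cell viability assay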
Description: SANGER: Inhibition of human TGW cell growth in a cell viability assay.

GB-1 = assay type: functional, cell-based, Homo sapiens; settings: Homo sapiens, GB-1;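 further: growth of GB-1 cells judged by a viability assay, IC50 marks the concentration inhibiting growth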
Description: SANGER: Inhibition of human GB-1 cell growth in a cell viability assay.

LB2518-MEL = assay type: functional, cell-based; settings: Homo sapiens;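 further: growth inhibition of human LB2518-MEL cells, measured with a cell viability assay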
A498 = assay type: functional, cell-based, Homo sapiens; settings: Homo sapiens, A498;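 further: growth inhibition of human A498 cells, read out with a cell viability assay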
Description: SANGER: Inhibition of human A498 cell growth in a cell viability assay.

LU-134-A = assay type: functional, cell-based, Homo sapiens; settings: Homo sapiens, LU-134-A
Description: SANGER: Inhibition of human LU-134-A cell growth in a cell viability assay.

SK-MEL-1 = assay type: functional, cell-based, Homo sapiens; settings: Homo sapiens, SK-MEL-1;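 further: growth inhibition of human SK-MEL-1 cells, read out by a cell viability assay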
Description: SANGER: Inhibition of human SK-MEL-1 cell growth in a cell viability assay.

MLMA = assay type: functional, cell-based, Homo sapiens; settings: Homo sapiens, MLMA;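 further: growth inhibition of MLMA cells (human), determined through a cell viability readout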
Description: SANGER: Inhibition of human MLMA cell growth in a cell viability assay.

MZ7-mel = assay type: functional, cell-based, Homo sapiens; settings: Homo sapiens, MZ7-mel;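 further: growth inhibition of human MZ7-mel cells, measured by a cell viability assay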
Description: SANGER: Inhibition of human MZ7-mel cell growth in a cell viability assay.

HCC2157 = assay type: functional, cell-based, Homo sapiens; settings: Homo sapiens, HCC2157;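 further: growth inhibition of the cancer cell line, read out as cell viability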
Description: SANGER: Inhibition of human HCC2157 cell growth in a cell viability assay.

GOTO = assay type: functional, cell-based, Homo sapiens; settings: Homo sapiens, GOTO;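 further: growth inhibition of GOTO cells, read out by a cell viability assay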
Description: SANGER: Inhibition of human GOTO cell growth in a cell viability assay.

VA-ES-BJ = assay type: functional, cell-based, Homo sapiens; settings: Homo sapiens, VA-ES-BJ;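 further: growth inhibition of the VA-ES-BJ cell line, read out by a cell viability assay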
Description: SANGER: Inhibition of human VA-ES-BJ cell growth in a cell viability assay.

ES6 = assay type: functional, cell-based; settings: Homo sapiens;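 further: growth inhibition of human ES6 cells, read out with a cell viability assay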
Description: SANGER: Inhibition of human ES6 cell growth in a cell viability assay.

SNB-75 = assay type: functional, cell-based, Homo sapiens; settings: Homo sapiens, SNB-75;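 further: cell viability assay measuring growth inhibition of human SNB-75 cells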
Description: SANGER: Inhibition of human SNB75 cell growth in a cell viability assay.

SCC-15 = assay type: functional, cell-based, Homo sapiens; settings: Homo sapiens, SCC-15;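 further: growth inhibition of SCC-15 cells, read out with a cell viability assay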
Ramos-2G6-4C10 = assay type: functional, cell-based, Homo sapiens; settings: Homo sapiens, Ramos-2G6-4C10;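 further: growth inhibition of the cell line, measured by a cell viability read-out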
Description: SANGER: Inhibition of human Ramos-2G6-4C10 cell growth in a cell viability assay.

NCI-H209 = assay type: functional, cell-based, Homo sapiens; settings: Homo sapiens, NCI-H209;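 further: growth inhibition of human NCI-H209 cells, measured by a cell viability assay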
Description: SANGER: Inhibition of human NCI-H209 cell growth in a cell viability assay.

SF-539 = assay type: functional, cell-based, Homo sapiens; settings: Homo sapiens, SF-539;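 further: Read-out is a cell viability assay, with IC50 reflecting inhibition of cell growth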
Description: SANGER: Inhibition of human SF539 cell growth in a cell viability assay.

TGBC24TKB = assay type: functional, cell-based; settings: Homo sapiens;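 further: growth inhibition of human TGBC24TKB cells, read out with a cell viability assay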
Description: SANGER: Inhibition of human TGBC24TKB cell growth in a cell viability assay.

IA-LM = assay type: functional, cell-based; settings: Homo sapiens;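 further: cell viability assay measuring growth inhibition of human IA-LM cells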
Description: SANGER: Inhibition of human IA-LM cell growth in a cell viability assay.

BB65-RCC = assay type: functional, cell-based, Homo sapiens; settings: Homo sapiens, BB65-RCC;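 further: growth inhibition of the cell line, measured with a cell viability assay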
Description: SANGER: Inhibition of human BB65-RCC cell growth in a cell viability assay.

DMS-114 = assay type: functional, cell-based, Homo sapiens; settings: Homo sapiens, DMS-114
ETK-1 = assay type: functional, cell-based, Homo sapiens; settings: Homo sapiens, ETK-1;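 further: growth inhibition of human ETK-1 cells, read out with a cell viability assay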
Description: SANGER: Inhibition of human ETK-1 cell growth in a cell viability assay.

SF-268 = assay type: functional, cell-based, Homo sapiens; settings: Homo sapiens, SF-268;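 further: growth inhibition of SF-268 cells determined with a cell viability assay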
Description: SANGER: Inhibition of human SF268 cell growth in a cell viability assay.

KARPAS-45 = assay type: functional, cell-based, Homo sapiens; settings: Homo sapiens, KARPAS-45;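 further: inhibition of cell line growth, read out through a viability assay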
Description: SANGER: Inhibition of human KARPAS-45 cell growth in a cell viability assay.

8-MG-BA = assay type: functional, cell-based, Homo sapiens; settings: Homo sapiens, 8-MG-BA;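 further: growth inhibition of 8-MG-BA cells, read out with a cell viability assay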
Description: SANGER: Inhibition of human 8-MG-BA cell growth in a cell viability assay.

HOP-62 = assay type: functional, cell-based, Homo sapiens; settings: Homo sapiens, HOP-62;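 further: cell growth inhibition determined with a viability assay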
MFM-223 = assay type: functional, cell-based, Homo sapiens; settings: Homo sapiens, MFM-223
Description: SANGER: Inhibition of human MFM-223 cell growth in a cell viability assay.

KS-1 = assay type: functional, cell-based; settings: Homo sapiens;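 further: growth inhibition of KS-1 cells, read out with a cell viability assay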
Description: SANGER: Inhibition of human KS-1 cell growth in a cell viability assay.

GI-1 = assay type: functional, cell-based, Homo sapiens; settings: Homo sapiens, GI-1;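 further: growth inhibition of human GI-1 cells, measured with a cell viability readout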
LNCaP-Clone-FGC = assay type: functional, cell-based, Homo sapiens; settings: Homo sapiens, LNCaP-Clone-FGC
Description: SANGER: Inhibition of human LNCaP-Clone-FGC cell growth in a cell viability assay.

NTERA-2-cl-D1 = assay type: functional, cell-based, Homo sapiens; settings: Homo sapiens, NTERA-2-cl-D1;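 further: inhibition of cell growth, measured with a cell viability assay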
Description: SANGER: Inhibition of human NTERA-S-cl-D1 cell growth in a cell viability assay.

A101D = assay type: functional, cell-based, Homo sapiens; settings: Homo sapiens, A101D;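 further: growth inhibition of the cell line, measured with a viability assay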
Description: SANGER: Inhibition of human A101D cell growth in a cell viability assay.

LS-123 = assay type: functional, cell-based, Homo sapiens; settings: Homo sapiens, LS-123
ES8 = assay type: functional, cell-based, Homo sapiens; settings: Homo sapiens, ES8;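 further: growth inhibition of human ES8 cells, read out with a cell viability assay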
Description: SANGER: Inhibition of human ES8 cell growth in a cell viability assay.

RPMI-8866 = assay type: functional, cell-based, Homo sapiens; settings: Homo sapiens, RPMI-8866
D-263MG = assay type: functional, cell-based, Homo sapiens; settings: Homo sapiens, D-263MG
Description: SANGER: Inhibition of human D-263MG cell growth in a cell viability assay.

NCI-H1355 = assay type: functional, cell-based, Homo sapiens; settings: Homo sapiens, NCI-H1355;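 further: growth inhibition of human NCI-H1355 cells, read out by a cell viability assay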
Description: SANGER: Inhibition of human NCI-H1355 cell growth in a cell viability assay.

LOX IMVI = assay type: functional, cell-based, Homo sapiens; settings: Homo sapiens, LOX IMVI
Description: SANGER: Inhibition of human LOXIMVI cell growth in a cell viability assay.

SH-4 = assay type: functional, cell-based; settings: Homo sapiens;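 further: growth inhibition of SH-4 cells, read out with a cell viability assay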
SF-126 = assay type: functional, cell-based, Homo sapiens; settings: Homo sapiens, SF-126;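 further: growth inhibition of human SF126 cells, read out with a cell viability assay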
KNS-42 = assay type: functional, cell-based; settings: Homo sapiens;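 further: growth inhibition of KNS-42 cells, read out with a cell viability assay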
Description: SANGER: Inhibition of human KNS-42 cell growth in a cell viability assay.

ES1 = assay type: functional, cell-based, Homo sapiens; settings: Homo sapiens, ES1;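 further: growth inhibition of ES1 cells, read out with a cell viability assay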
TE-12 = assay type: functional, cell-based, Homo sapiens; settings: Homo sapiens, TE-12;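 further: growth inhibition of TE-12 cells, read out by a cell viability assay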
Description: SANGER: Inhibition of human TE-12 cell growth in a cell viability assay.

KARPAS-299 = assay type: functional, cell-based, Homo sapiens; settings: Homo sapiens, KARPAS-299
Description: SANGER: Inhibition of human KARPAS-299 cell growth in a cell viability assay.

HCE-4 = assay type: functional, cell-based; settings: Homo sapiens;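 further: cell viability assay measuring inhibition of growth in the human HCE-4 cell line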
Description: SANGER: Inhibition of human HCE-4 cell growth in a cell viability assay.

COLO-800 = assay type: functional, cell-based, Homo sapiens; settings: Homo sapiens, COLO-800;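 further: growth inhibition of COLO-800 cells, read out with a cell viability assay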
Description: SANGER: Inhibition of human COLO-800 cell growth in a cell viability assay.

Mo = assay type: functional, cell-based, Homo sapiens; settings: Homo sapiens, Mo
Description: SANGER: Inhibition of human Mo-T cell growth in a cell viability assay.

HH = assay type: functional, cell-based, Homo sapiens; settings: Homo sapiens, HH
Description: SANGER: Inhibition of human HH cell growth in a cell viability assay.

MZ1-PC = assay type: functional, cell-based, Homo sapiens; settings: Homo sapiens, MZ1-PC;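 further: cell viability assay measuring growth inhibition of human MZ1-PC cells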
CGTH-W-1 = assay type: functional, cell-based, Homo sapiens; settings: Homo sapiens, CGTH-W-1;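 further: growth inhibition of human CGTH-W-1 cells measured by cell viability assay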
Description: SANGER: Inhibition of human CGTH-W-1 cell growth in a cell viability assay.

C2BBe1 = assay type: functional, cell-based, Homo sapiens; settings: Homo sapiens, C2BBe1;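 further: growth inhibition of C2BBe1 cells, read out through a viability assay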
Description: SANGER: Inhibition of human C2BBe1 cell growth in a cell viability assay.

**Q.** With C[C@@H](Oc1cc(-c2cnn(C3CCNCC3)c2)cnc1N)c1c(Cl)ccc(F)c1Cl [CRIZOTINIB] as the compound, how does the IC50 (TGW) read?
**A.** > 2 µM

**Q.** What about the IC50 (GB-1) of the same compound?
**A.** > 2 µM

**Q.** What about the IC50 (LB2518-MEL) of the same compound?
**A.** > 2 µM

**Q.** And the IC50 (A498)?
**A.** > 2 µM

**Q.** What about the IC50 (LU-134-A) of the same compound?
**A.** > 2 µM

**Q.** What about the IC50 (SK-MEL-1) of the same compound?
**A.** > 2 µM

**Q.** What about the IC50 (MLMA) of the same compound?
**A.** > 2 µM

**Q.** And the IC50 (MZ7-mel)?
**A.** > 2 µM

**Q.** And the IC50 (HCC2157)?
**A.** > 2 µM

**Q.** What about the IC50 (GOTO) of the same compound?
**A.** > 2 µM

**Q.** And the IC50 (VA-ES-BJ)?
**A.** > 2 µM

**Q.** What about the IC50 (ES6) of the same compound?
**A.** > 2 µM

**Q.** What about the IC50 (SNB-75) of the same compound?
**A.** > 2 µM

**Q.** What about the IC50 (SCC-15) of the same compound?
**A.** > 2 µM

**Q.** What about the IC50 (Ramos-2G6-4C10) of the same compound?
**A.** > 2 µM

**Q.** What about the IC50 (NCI-H209) of the same compound?
**A.** > 2 µM

**Q.** What about the IC50 (SF-539) of the same compound?
**A.** 0.204 µM

**Q.** What about the IC50 (TGBC24TKB) of the same compound?
**A.** > 2 µM

**Q.** And the IC50 (IA-LM)?
**A.** > 2 µM

**Q.** What about the IC50 (BB65-RCC) of the same compound?
**A.** > 2 µM

**Q.** And the IC50 (DMS-114)?
**A.** > 2 µM

**Q.** And the IC50 (ETK-1)?
**A.** > 2 µM

**Q.** What about the IC50 (SF-268) of the same compound?
**A.** > 2 µM

**Q.** What about the IC50 (KARPAS-45) of the same compound?
**A.** > 2 µM

**Q.** And the IC50 (8-MG-BA)?
**A.** > 2 µM

**Q.** And the IC50 (HOP-62)?
**A.** > 2 µM

**Q.** What about the IC50 (MFM-223) of the same compound?
**A.** > 2 µM

**Q.** And the IC50 (KS-1)?
**A.** > 2 µM

**Q.** What about the IC50 (GI-1) of the same compound?
**A.** > 2 µM

**Q.** And the IC50 (LNCaP-Clone-FGC)?
**A.** > 2 µM

**Q.** What about the IC50 (NTERA-2-cl-D1) of the same compound?
**A.** > 2 µM

**Q.** What about the IC50 (A101D) of the same compound?
**A.** > 2 µM

**Q.** What about the IC50 (LS-123) of the same compound?
**A.** > 2 µM

**Q.** What about the IC50 (ES8) of the same compound?
**A.** > 2 µM

**Q.** And the IC50 (RPMI-8866)?
**A.** > 2 µM

**Q.** And the IC50 (D-263MG)?
**A.** > 2 µM

**Q.** What about the IC50 (NCI-H1355) of the same compound?
**A.** > 2 µM

**Q.** What about the IC50 (LOX IMVI) of the same compound?
**A.** > 2 µM

**Q.** What about the IC50 (SH-4) of the same compound?
**A.** > 2 µM

**Q.** What about the IC50 (SF-126) of the same compound?
**A.** > 2 µM

**Q.** What about the IC50 (KNS-42) of the same compound?
**A.** > 2 µM

**Q.** And the IC50 (ES1)?
**A.** > 2 µM

**Q.** What about the IC50 (TE-12) of the same compound?
**A.** > 2 µM

**Q.** And the IC50 (KARPAS-299)?
**A.** 1.41 µM

**Q.** What about the IC50 (HCE-4) of the same compound?
**A.** > 2 µM

**Q.** And the IC50 (COLO-800)?
**A.** > 2 µM

**Q.** And the IC50 (Mo)?
**A.** > 2 µM

**Q.** What about the IC50 (HH) of the same compound?
**A.** > 2 µM

**Q.** What about the IC50 (MZ1-PC) of the same compound?
**A.** > 2 µM

**Q.** And the IC50 (CGTH-W-1)?
**A.** > 2 µM

**Q.** What about the IC50 (C2BBe1) of the same compound?
**A.** > 2 µM

**Q.** Which results are given for Cc1ccc(NC(=O)c2ccc(CN3CCN(C)CC3)cc2)cc1Nc1nccc(-c2cccnc2)n1 [IMATINIB]?
**A.** IC50 (TGW): > 2 µM; IC50 (GB-1): > 2 µM; IC50 (LB2518-MEL): > 2 µM; IC50 (A498): > 2 µM; IC50 (LU-134-A): > 2 µM; IC50 (SK-MEL-1): > 2 µM; IC50 (MLMA): > 2 µM; IC50 (MZ7-mel): > 2 µM; IC50 (HCC2157): > 2 µM; IC50 (GOTO): > 2 µM; IC50 (VA-ES-BJ): > 2 µM; IC50 (ES6): > 2 µM; IC50 (SNB-75): > 2 µM; IC50 (SCC-15): > 2 µM; IC50 (Ramos-2G6-4C10): > 2 µM; IC50 (NCI-H209): > 2 µM; IC50 (SF-539): > 2 µM; IC50 (TGBC24TKB): > 2 µM; IC50 (IA-LM): > 2 µM; IC50 (BB65-RCC): > 2 µM; IC50 (DMS-114): > 2 µM; IC50 (ETK-1): > 2 µM; IC50 (SF-268): > 2 µM; IC50 (KARPAS-45): > 2 µM; IC50 (8-MG-BA): > 2 µM; IC50 (HOP-62): > 2 µM; IC50 (MFM-223): > 2 µM; IC50 (KS-1): > 2 µM; IC50 (GI-1): > 2 µM; IC50 (A101D): > 2 µM; IC50 (LS-123): > 2 µM; IC50 (ES8): > 2 µM; IC50 (RPMI-8866): > 2 µM; IC50 (D-263MG): > 2 µM; IC50 (NCI-H1355): > 2 µM; IC50 (LOX IMVI): > 2 µM; IC50 (SH-4): > 2 µM; IC50 (SF-126): > 2 µM; IC50 (KNS-42): > 2 µM; IC50 (ES1): > 2 µM; IC50 (TE-12): > 2 µM; IC50 (KARPAS-299): > 2 µM; IC50 (HCE-4): > 2 µM; IC50 (COLO-800): > 2 µM; IC50 (Mo): > 2 µM; IC50 (HH): > 2 µM; IC50 (MZ1-PC): > 2 µM; IC50 (CGTH-W-1): 0.384 µM; IC50 (C2BBe1): > 2 µM

From ChEMBL document CHEMBL1201861, “Genomics of Drug Sensitity in Cancer screening data, Wellcome Trust Sanger Institute”
